Article PMC3254644, “DNA Display Selection of Peptide Ligands for a Full-Length Human G Protein-Coupled Receptor on CHO-K1 Cells” (PLoS ONE, 2012)
Residues, ends and D or L forms follow the SMILES beside them.

Legend:
[1] = molecular target: T1, human angiotensin II type 1 receptor (hAT1R) (Homo sapiens, UniProt P30556); assay: Competitive binding assay at various concentrations of synthetic peptides (IC50); settings: streptavidin-fused Ang II on hAT1R/CHO-K1 cells competed by 0–200 nM synthetic peptide; 10 min room temperature; quantitative Western blot (Fig. S1)
T1 construct: we applied the DNA display system to in vitro selection of peptide ligands for a full-length GPCR expressed on whole cells; polyhistidine (C); expressed in transfected cells
T1 sequence (P30556 1-359): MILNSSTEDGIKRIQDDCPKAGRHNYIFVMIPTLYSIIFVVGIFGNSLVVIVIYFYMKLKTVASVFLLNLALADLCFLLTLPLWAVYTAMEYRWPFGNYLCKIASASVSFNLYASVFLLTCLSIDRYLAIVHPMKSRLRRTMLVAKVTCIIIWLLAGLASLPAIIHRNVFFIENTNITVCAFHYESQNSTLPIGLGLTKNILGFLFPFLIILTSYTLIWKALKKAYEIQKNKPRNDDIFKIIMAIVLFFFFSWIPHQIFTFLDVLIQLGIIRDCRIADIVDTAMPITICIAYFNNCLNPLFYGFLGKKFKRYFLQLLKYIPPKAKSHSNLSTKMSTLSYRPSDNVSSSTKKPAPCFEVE
Procedure: Streptavidin-fused peptides for selected clones were prepared separately by using the PURE system classic II kit with 20 nM DNA for 1 h at 37°C. The streptavidin-fused peptides were incubated with the hAT1R-expressing cells for 10 min at room temperature in the presence 0–200 nM synthetic peptides (see next section) as competitors, and washed as described in the previous section. Then the binding proteins were recovered using 0.5 ml of lysis buffer (1% protease inhibitor cocktail and 4 M urea) on ice for 30 min. The cell lysates were analyzed by 15% SDS-PAGE and Western blot analysis using anti-T7·tag antibody (Novagen) followed by HRP-conjugated secondary antibody (Chemicon). The streptavidin-fused peptides with T7·tag were quantitatively detected by an ECL chemiluminescence kit and Hyperfilm ECL (GE Healthcare).
Supplementary file pone.0030084.s001.pdf: Figure S1 Competition curves for selected peptides. […] For details, see MATERIALS AND METHODS. (PDF) Click here for additional data file.

[2] = molecular target: human angiotensin II (Ang II) type-1 receptor (hAT1R) with C-terminal c-myc tag, on CHO-K1 cells (human) (UniProt P30556); assay: radioligand binding; [125I]Sar1,Ile8-Ang II, 0.05 nM to 20 nM, on hAT1R/CHO-K1 cells in 48-well plates; Ham's F12 with 1% BSA; 30 min at room temperature; Scatchard analysis; data not shown
rat AT1R = tested on: rat AT1R; parameters: method as in PMID 12969745; settings: cited from earlier work

IC50 [1] | Molecule | other results
0.016 µM | CC[C@H](C)[C@H](NC(=O)[C@H](CCCNC(=N)N)NC(=O)[C@@H](N)CC(N)=O)C(=O)N[C@@H](Cc1ccc(O)cc1)C(=O)N[C@H](C(=O)N[C@@H](Cc1c[nH]cn1)C(=O)N1CCC[C@H]1C(=O)N[C@@H](Cc1ccccc1)C(=O)O)[C@@H](C)CC [LI5-1] (H-NRIYIHPF-OH) | 
0.075 µM | CC(C)C[C@H](NC(=O)[C@H](CCCNC(=N)N)NC(=O)[C@@H](N)Cc1c[nH]c2ccccc12)C(=O)N[C@@H](Cc1ccc(O)cc1)C(=O)N[C@@H](CC(C)C)C(=O)N[C@@H](Cc1c[nH]cn1)C(=O)N1CCC[C@H]1C(=O)N[C@@H](Cc1ccccc1)C(=O)O [LI5-2] (H-WRLYLHPF-OH) | 
0.0086 µM | CC[C@H](C)[C@H](NC(=O)[C@@H]1CCCN1C(=O)[C@H](Cc1c[nH]cn1)NC(=O)[C@@H](NC(=O)[C@H](Cc1ccc(O)cc1)NC(=O)[C@H](CC(C)C)NC(=O)[C@H](CCCNC(=N)N)NC(=O)CN)[C@@H](C)CC)C(=O)O [LII3-2] (H-GRLYIHPI-OH) | 
0.048 µM | CC[C@H](C)[C@H](NC(=O)[C@H](Cc1ccc(O)cc1)NC(=O)[C@H](Cc1ccccc1)NC(=O)[C@H](CCCNC(=N)N)NC(=O)[C@@H](N)CCC(N)=O)C(=O)N[C@@H](Cc1c[nH]cn1)C(=O)N1CCC[C@H]1C(=O)N[C@@H](CC(C)C)C(=O)O [LII3-4] (H-QRFYIHPL-OH) | 
0.0076 µM | CC[C@H](C)[C@H](NC(=O)[C@@H]1CCCN1C(=O)[C@H](Cc1c[nH]cn1)NC(=O)[C@@H](NC(=O)[C@H](Cc1ccc(O)cc1)NC(=O)[C@H](CC(C)C)NC(=O)[C@H](CCCCN)NC(=O)[C@@H](N)CCCNC(=N)N)[C@@H](C)CC)C(=O)O [LII3-5] (H-RKLYIHPI-OH) | 
 | [125I]Sar1,Ile8-Ang II (peptide) | Kd [2]: 0.0082 µM
 | [Lys^2]Ang II (DKVYIHPF; Angiotensin-2; UniProt P01019 25-32, looked up, variant R2K) [Ang II analogue with Lys at position 2, from the literature] | affinity for rat AT1R relative to wild-type Ang II (rat AT1R): lower than that of wild-type Ang II
